Laboratory results published in patent publication EP0072027A1, “Antiviral compounds” (THE WELLCOME FOUNDATION LIMITED, priority 1981, dated 1983).
Marks after values point to notes of the source that are not given here.

Experiments:
[1] = system: herpes simplex virus type 1; assay: Comparative in vivo activity against herpetic encephalitis in mice (Example 18); parameters: species or system CD.1 mice; conditions: for Mean reciprocal survival time: 100 mg/kg/dose twice daily for 4½ days, 300 LD50
Method: CD.1 mice weighing 16 - 20 gm were obtained from Charles River, Manston, Kent, U.K. The animals were housed in groups of approximately 10 and were given food and water ad lib.
The compounds namely acyclovir, 134U, 759U and 457U, were prepared as suspensions or solutions in sterile water at a concentration of 20 mg/ml prior to each experiment, and were stored at 4°C during the dosing period.
The ICI strain of herpes simplex virus type 1 was used for all experiments at a concentration of 300 LD50 (10^5 pfu)/ml). Dilutions from virus stocks ([…]) were prepared in PBS 'A'.
The test procedure is analoguous to that described in Example 13.
Three experiments were performed, in which three routes of compound administration were examined: i) subcutaneous, ii) oral and iii) intraperitoneal. […]

[2] = system: Equine rhinopneumonitis virus (EHV-1); assay: In vivo activity against equine rhinopneumonitis virus in hamsters (Example 14), intraperitoneal and oral; parameters: species or system Syrian weanling hamsters
Method: Male cream Syrian weanling hamsters, 40-50 g, 21-24 days old, were caged in groups of 5 and given water and food ad lib.
Equine rhinopneumonitis virus (EHV-1), hamster adapted Vaccine Strain 'Pneumabort' was used; the vaccine was diluted 10^-1 in tissue culture fluid and this stock stored in 1 ml aliquots in sealed glass vials at -70°C. On Day 0 hamsters to be infected received 0.2 ml stock vaccine virus, diluted further 2 x 10^-1 in phosphate buffered saline, subcutaneously in the left flank.
9-/(2-Hydroxy-l-hydroxymethylethoxy)methyl/guanine (hereinafter referred to as 759U) and acyclovir were made up as aqueous solutions in sterile distilled water in the concentrations specified below.
Intraperitoneal administration: from Day 0 to Day 4, inclusive, hamsters received 759U or acyclovir in divided twice daily doses in aqueous solution, the concentration of 759U varying as following, namely 5 mg/ml to give a dose rate of 100 or 50 mg/kg/day, 1.2 mg/ml for 20 mg/kg/day, […] for 4 mg/kg/day and 0.036 mg/ml for 2 mg/kg/day. Untreated control hamsters received an equivalent volume of sterile distilled water.
A stock solution of 759U was made in sterile distilled water at 0.304 mg/ml and then diluted in 3-fold steps to 0.101 and 0.034 mg/ml. Hamsters were given medicated drinking water for 5 days commencing 5 hours pre-infection. A control group was supplied with unmedicated water.
Acyclovir was dissolved in sterile distilled water at 2 mg/ml with the addition of a little sodium hydroxide and warming to 42°C to facilitate solution. Hamsters were given medicated drinking water, containing acyclovir at 2 mg/ml, for 5 days commencing 5 hours pre-infection. […] A control group supplied with unmedicated water was set up.

herpes virus = assay: In vivo activity against herpetic encephalitis, intracerebrally infected mice (Example 17); conditions: for Mean reciprocal survival time: 100 mg/kg oral twice daily for 5 days, around 300 x LD50 intracerebrally, 14 days observation
Method: Swiss mice weighing 12-15 g were anaesthetised with ether and inoculated intracerebrally with 0.025 ml of a tissue culture preparation of type herpes virus. The mice were examined daily for sign of herpes encephalitis i.e. cerebral irritation leading to paralysis, coma and death. […] The viscera of the mice were examined for signs of infection with bacteria or other agents and if no abnormalities were found the brains were removed asceptically and ground to a smooth paste. The homogenate was resuspended in 4 ml of tissue culture maintenance medium to each brain, and mixed with glycerol in the ratio 2:1. Mouse brains weigh approximately 400 mg and the preparation thus represented a dilution of 10^-1.
The stocks of virus thus prepared were titrated in mice to determine the LD50 titre by inoculating mice intracerebrally with 10-fold dilutions of the stock preparation of virus and subsquently examined twice daily for signs of infection. The LD50 titre was calculated by the Karber method.
Groups of 5 mice were infected intracerebrally with stock virus diluted to give a dose of around 300 x LD50. The compound under test was administered twice daily as a suspension by the oral route at a dose of 100 mg/kg. The animals were examined twice daily and survival times were recorded to the nearst half-day. Dosing was carried out for 5 days and the total period of observation was 14 days. Survival times were converted to recipocals and the mean survival time was determined for each group L. Bauer, D. J., Brit. J. Exp. Path., 1960, 41, 130).

[3] = 50 mg/kg/day intraperitoneal, Day 2, 10 in group
[4] = 50 mg/kg/day intraperitoneal, Day 3, 10 in group
[5] = 50 mg/kg/day intraperitoneal, Day 4, 10 in group
[6] = 50 mg/kg/day intraperitoneal, Day 5, 10 in group
[7] = 50 mg/kg/day intraperitoneal, Day 6, 10 in group
[8] = 50 mg/kg/day intraperitoneal, Day 7, 10 in group
[9] = 100 mg/kg/day intraperitoneal, Day 2, 10 in group
[10] = 100 mg/kg/day intraperitoneal, Day 3, 10 in group
[11] = 100 mg/kg/day intraperitoneal, Day 4, 10 in group
[12] = 100 mg/kg/day intraperitoneal, Day 5, 10 in group
[13] = 100 mg/kg/day intraperitoneal, Day 6, 10 in group
[14] = 100 mg/kg/day intraperitoneal, Day 7, 10 in group

SMILES: Nc1nc2c(ncn2COC(CO)CO)c(=O)[nH]1 [Example 759U, 9-[(2-hydroxy-1-hydroxymethylethoxy)methyl]guanine]
- Mean reciprocal survival time ([1]; Oral): 0.146
- antiviral effect compared with acyclovir and 134U ([1]; any of the three routes, difference highly significant): greatest antiviral effect
- Mean reciprocal survival time ([1]; i.p.): 0.093
- Mean reciprocal survival time ([1]; s.c.): 0.084
- Cumulative mortality ([2]; 2 mg/kg/day intraperitoneal, Day 2, 10 in group): 0
- Cumulative mortality ([2]; 2 mg/kg/day intraperitoneal, Day 3, 10 in group): 0
- Cumulative mortality ([2]; 2 mg/kg/day intraperitoneal, Day 4, 10 in group): 0
- Cumulative mortality ([2]; 2 mg/kg/day intraperitoneal, Day 5, 10 in group): 0
- Cumulative mortality ([2]; 2 mg/kg/day intraperitoneal, Day 6, 10 in group): 0
- Cumulative mortality ([2]; 2 mg/kg/day intraperitoneal, Day 7, 10 in group): 0
- control of virus-induced mortality ([2]; 2 mg/kg/day intraperitoneally): complete control
- Cumulative mortality ([2]; 3 mg/kg/day oral (drinking water), Day 2, 10 in group): 0
- Cumulative mortality ([2]; 3 mg/kg/day oral (drinking water), Day 3, 10 in group): 1
- Cumulative mortality ([2]; 3 mg/kg/day oral (drinking water), Day 4, 10 in group): 1
- Cumulative mortality ([2]; 3 mg/kg/day oral (drinking water), Day 5, 10 in group): 1
- Cumulative mortality ([2]; 3 mg/kg/day oral (drinking water), Day 6, 10 in group): 1
- Cumulative mortality ([2]; 3 mg/kg/day oral (drinking water), Day 7, 10 in group): 1
- Cumulative mortality ([2]; 4 mg/kg/day intraperitoneal, Day 2, 10 in group): 0
- Cumulative mortality ([2]; 4 mg/kg/day intraperitoneal, Day 3, 10 in group): 0
- Cumulative mortality ([2]; 4 mg/kg/day intraperitoneal, Day 4, 10 in group): 0
- Cumulative mortality ([2]; 4 mg/kg/day intraperitoneal, Day 5, 10 in group): 0
- Cumulative mortality ([2]; 4 mg/kg/day intraperitoneal, Day 6, 10 in group): 0
- Cumulative mortality ([2]; 4 mg/kg/day intraperitoneal, Day 7, 10 in group): 0
- Cumulative mortality ([2]; 13 mg/kg/day oral (drinking water), Day 2, 10 in group): 0
- Cumulative mortality ([2]; 13 mg/kg/day oral (drinking water), Day 3, 10 in group): 0
- Cumulative mortality ([2]; 13 mg/kg/day oral (drinking water), Day 4, 10 in group): 0
- Cumulative mortality ([2]; 13 mg/kg/day oral (drinking water), Day 5, 10 in group): 0
- Cumulative mortality ([2]; 13 mg/kg/day oral (drinking water), Day 6, 10 in group): 0
- Cumulative mortality ([2]; 13 mg/kg/day oral (drinking water), Day 7, 10 in group): 0
- Cumulative mortality ([2]; 20 mg/kg/day intraperitoneal, Day 2, 10 in group): 0
- Cumulative mortality ([2]; 20 mg/kg/day intraperitoneal, Day 3, 10 in group): 0
- Cumulative mortality ([2]; 20 mg/kg/day intraperitoneal, Day 4, 10 in group): 0
- Cumulative mortality ([2]; 20 mg/kg/day intraperitoneal, Day 5, 10 in group): 0
- Cumulative mortality ([2]; 20 mg/kg/day intraperitoneal, Day 6, 10 in group): 0
- Cumulative mortality ([2]; 20 mg/kg/day intraperitoneal, Day 7, 10 in group): 0
- Cumulative mortality ([2]; 39 mg/kg/day oral (drinking water), Day 2, 10 in group): 0
- Cumulative mortality ([2]; 39 mg/kg/day oral (drinking water), Day 3, 10 in group): 0
- Cumulative mortality ([2]; 39 mg/kg/day oral (drinking water), Day 4, 10 in group): 0
- Cumulative mortality ([2]; 39 mg/kg/day oral (drinking water), Day 5, 10 in group): 0
- Cumulative mortality ([2]; 39 mg/kg/day oral (drinking water), Day 6, 10 in group): 0
- Cumulative mortality ([2]; 39 mg/kg/day oral (drinking water), Day 7, 10 in group): 0
- Cumulative mortality [2, 3]: 0
- Cumulative mortality [2, 4]: 0
- Cumulative mortality [2, 5]: 0
- Cumulative mortality [2, 6]: 0
- Cumulative mortality [2, 7]: 0
- Cumulative mortality [2, 8]: 0
- Cumulative mortality [2, 9]: 0
- Cumulative mortality [2, 10]: 0
- Cumulative mortality [2, 11]: 0
- Cumulative mortality [2, 12]: 0
- Cumulative mortality [2, 13]: 0
- Cumulative mortality [2, 14]: 1*
- efficacy against EHV-1 ([2]; orally at 3 mg/kg/day): only limited mortality
- efficacy against EHV-1 ([2]; orally at 13 mg/kg/day): completely effective
- Mean reciprocal survival time (herpes virus): 0.15
- activity given orally to intracerebrally infected mice compared with acyclovir (herpes virus; same conditions): much greater than acyclovir

SMILES: Nc1nc2c(ncn2COCCO)c(=O)[nH]1 [acyclovir, 9-(2-hydroxyethoxymethyl) guanine, reference compound]
- Mean reciprocal survival time ([1]; Oral): 0.237
- Mean reciprocal survival time ([1]; i.p.): 0.236
- Mean reciprocal survival time ([1]; s.c.): 0.174
- Cumulative mortality [2, 3]: 0
- Cumulative mortality [2, 4]: 1
- Cumulative mortality [2, 5]: 2
- Cumulative mortality [2, 6]: 5
- Cumulative mortality [2, 7]: 6
- Cumulative mortality [2, 8]: 6
- Cumulative mortality [2, 9]: 0
- Cumulative mortality [2, 10]: 0
- Cumulative mortality [2, 11]: 1*
- Cumulative mortality [2, 12]: 2*
- Cumulative mortality [2, 13]: 2*
- Cumulative mortality [2, 14]: 3*
- Cumulative mortality ([2]; 100 mg/kg/day oral (drinking water 2 mg/ml), Day 2, 12 in group): 0
- Cumulative mortality ([2]; 100 mg/kg/day oral (drinking water 2 mg/ml), Day 3, 12 in group): 2
- Cumulative mortality ([2]; 100 mg/kg/day oral (drinking water 2 mg/ml), Day 4, 12 in group): 5
- Cumulative mortality ([2]; 100 mg/kg/day oral (drinking water 2 mg/ml), Day 5, 12 in group): 7
- Cumulative mortality ([2]; 100 mg/kg/day oral (drinking water 2 mg/ml), Day 6, 12 in group): 8
- efficacy against EHV-1 ([2]; orally at 100 mg/kg/day for 5 days): poor efficacy
- Mean reciprocal survival time (herpes virus): 0.26
